Source: paper PMC9973354 (mBio, 2022)
Starred links: 1 amine or outer side, 2 acyl side, 3 side chain; linkers in the order of their positions; H or OH if unused. Positions of bridges follow the written chain, without caps; N, C: chain ends. Non-standard residues stand in square brackets, D forms with d. Residues, ends and D or L forms follow the SMILES beside them. ξ: configuration not given here. X1 = O=C([C@@H]1CCN=C2C(N[*:1])=Cc3cc(O)c(O)cc3N21)[*:2]; ξOrn(N(OH)CHO) = NC(CCCN(O)C=O)C(=O)O; Suc = O=C(CCC(=O)[*:2])[*:1]; ξK = NCCCCC(N)C(=O)O; ξS = NC(CO)C(=O)O

Tests used:
[1] = test system: PA14 ΔfpvA ΔfpvB pHERD20T-fpvA; experiment: Checkerboard assay TS and siderophores, FpvA expressed; assay type: cell-based, Pseudomonas aeruginosa; conditions: 10:90 + 2% arabinose
Text: (§1) We investigated this hypothesis by treating the ΔfpvA ΔfpvB mutant complemented with fpvA or fpvB with TS and pyoverdine-Fe^3+. If pyoverdine competes with TS for the same binding site in the transporter, a reduction in TS susceptibility would be expected, as competition would decrease entry of the antibiotic into the cell. TS susceptibility decreased >8-fold with increasing concentrations of pyoverdine-Fe^3+ when FpvA was expressed (see Fig. S2A in the supplemental material).
(§2) Supplementary file : FIG S2 Checkerboard assays of the PA14 ΔfpvA ΔfpvB strain complemented with fpvA and fpvB in trans with TS and siderophores. […] Checkerboards of the PA14 ΔfpvA ΔfpvB pHERD20T-fpvB strain with TS and enterobactin (G), ferrioxamine E (H), and arthrobactin (I). Results are averaged from three independent biological replicates. Cells in the assay were grown in 10:90 + 2% arabinose. Download FIG S2, EPS file, 2.2 MB.
Checkerboards (8 rows by 8 columns) were conducted as previously described in a 96-well plate (Nunc) ([13], [14]). TS at 75× the final concentration dissolved in DMSO was added in columns from bottom to top in increasing concentrations. Siderophores at 75× the final concentration dissolved in DSMO were added from in rows from left to right in increasing concentrations. Four columns were used for vehicle controls (DMSO) and sterile controls. […] Plates were sealed to prevent evaporation and incubated at 37°C overnight in a shaking incubator (200 rpm). The next day, the OD600 was determined with a plate reader (Thermo Scientific) and normalized to percent of growth of the vehicle control (DMSO) after subtracting the OD600 from blank media.

FpvB W347V R648C = molecular target: T1, FpvB W347V R648C (Pseudomonas aeruginosa, UniProt A0A0H2ZFZ5, R648C/W347V); experiment: Whole-cell fluorescence quenching, FpvB W347V R648C; assay type: binding
T1 sequence (A0A0H2ZFZ5 23-802 W347V/R648C): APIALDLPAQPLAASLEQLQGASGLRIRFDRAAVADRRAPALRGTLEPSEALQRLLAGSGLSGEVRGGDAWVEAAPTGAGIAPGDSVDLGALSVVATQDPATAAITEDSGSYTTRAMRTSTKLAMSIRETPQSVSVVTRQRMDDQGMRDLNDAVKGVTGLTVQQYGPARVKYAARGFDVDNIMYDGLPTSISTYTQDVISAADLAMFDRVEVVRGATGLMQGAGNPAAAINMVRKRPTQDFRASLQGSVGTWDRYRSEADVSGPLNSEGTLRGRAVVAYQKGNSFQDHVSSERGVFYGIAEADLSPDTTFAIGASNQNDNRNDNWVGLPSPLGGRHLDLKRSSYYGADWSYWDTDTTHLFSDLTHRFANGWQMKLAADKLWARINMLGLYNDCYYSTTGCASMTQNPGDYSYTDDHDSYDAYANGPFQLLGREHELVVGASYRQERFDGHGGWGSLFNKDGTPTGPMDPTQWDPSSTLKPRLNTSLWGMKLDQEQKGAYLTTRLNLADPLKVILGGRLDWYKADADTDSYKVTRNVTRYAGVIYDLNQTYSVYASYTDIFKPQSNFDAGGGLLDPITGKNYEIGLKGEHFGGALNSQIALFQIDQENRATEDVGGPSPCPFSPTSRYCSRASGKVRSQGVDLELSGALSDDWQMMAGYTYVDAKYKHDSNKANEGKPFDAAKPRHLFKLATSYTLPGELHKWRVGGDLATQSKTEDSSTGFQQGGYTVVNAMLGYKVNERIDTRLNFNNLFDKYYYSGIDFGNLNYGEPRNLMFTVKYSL
Method: (§3) Quenching assays with the two xenosiderophores were repeated for the quadruple TBDT mutant expressing WT FpvB, FpvB R191A R648C, or W347V R648C.
(§4) Cells were cultured overnight in LB with carbenicillin (200 μg/mL) at 37°C with shaking at 200 rpm. Cells were subcultured (1:200 dilution) in 10:90 plus 2% arabinose for 4 h without carbenicillin at 37°C with shaking at 200 rpm. Cells were harvested by centrifugation for 5 min and 6,000 × g and resuspended in sterile 1× phosphate-buffered saline (PBS) (pH 7.4); 1× PBS was made from a 10× stock (80 g NaCl, 2 g KCl, 26.8 g Na2 HPO4-7H2O, 2.4 g KH2PO4 in 1 L of deionized H2O) with 10 μM Alexa Fluor 594 C5 maleimide for microscopy or fluorescein-5-maleimide for fluorescence quenching and recovery assays and incubated in the dark at room temperature for 30 min on a shaking incubator at 37°C (200 rpm). Excess dye was quenched with 1 mM dithiothreitol (DTT) (Sigma) to stop the reaction. Cells were washed 3× with PBS. For fluorescence recovery assays, cells were incubated with 1× PBS plus 0.4% glucose at 37°C with shaking at 200 rpm. Glucose was prepared as a 20% stock (wt/vol) in 1× PBS and filter sterilized. Cells were spun down and washed 3× with 1× PBS and resuspended in 1× PBS for quenching assays and 1× PBS plus 0.4% glucose for fluorescence recovery assays.
(§5) For fluorescence quenching and recovery assays, cells were diluted to an OD600 of 0.1 for both types of assays, and 148 μL was added into wells of a 96-well black plate (Corning). Fluorescence was recorded for 5 min at 1-min intervals at 37°C (BioTek Neo; excitation, 494 nm; emission, 520 nm). After 5 min, 2 μL of each serial dilution for ferrioxamine-Fe^3+, ferrichrome-Fe^3+, and pyoverdine-Fe^3+ or DMSO for vehicle controls was added to each well. Fluorescence was recorded immediately for quenching assays and for 1 h at 1-min intervals for fluorescence recovery assays. Background fluorescence was subtracted from all fluorescence readings and 1-F/F0 was used to calculate the degree of quenching, where F0 is the initial fluorescence. Kd was calculated using GraphPad Prism using a one-site specific binding model or a two-site model. For fluorescence recovery assays, background was subtracted from all fluorescence readings and F/F0 expressed as a percent of control was plotted versus time.

FpvB R648C [2] = molecular target: T2, FpvB R648C (Pseudomonas aeruginosa, UniProt A0A0H2ZFZ5, R648C); experiment: Whole-cell fluorescence quenching, FpvB R648C in ΔfpvA ΔfpvB; assay type: binding
T2 sequence (A0A0H2ZFZ5 23-802 R648C): T1 sequence (A0A0H2ZFZ5 23-802 W347V/R648C)
Text: (§6) To determine the affinity of the siderophores for FpvA and FpvB, we adapted the method from Chakravorty et al. to generate a whole-cell sensor where fluorescence quenching serves as an indicator of ligand interaction ([31]). Siderophore binding triggers conformational changes at the extracellular loops of the TBDT (Fig. 3A). Cys substitutions were introduced at the loops and labeled with a fluorescent maleimide dye. When a ligand binds the transporter, the loops fold inward toward the lumen of the barrel, and changes in the chemical environment surrounding the fluorophore lead to quenching ([31], [32]). Fluorescence recovery occurs once the siderophore is taken up and the loop returns to its original conformation.
Cells were cultured overnight in LB with carbenicillin (200 μg/mL) at 37°C with shaking at 200 rpm. Cells were subcultured (1:200 dilution) in 10:90 plus 2% arabinose for 4 h without carbenicillin at 37°C with shaking at 200 rpm. […] Excess dye was quenched with 1 mM dithiothreitol (DTT) (Sigma) to stop the reaction. Cells were washed 3× with PBS. For fluorescence recovery assays, cells were incubated with 1× PBS plus 0.4% glucose at 37°C with shaking at 200 rpm. Glucose was prepared as a 20% stock (wt/vol) in 1× PBS and filter sterilized. Cells were spun down and washed 3× with 1× PBS and resuspended in 1× PBS for quenching assays and 1× PBS plus 0.4% glucose for fluorescence recovery assays.
as §5

FpvB R648C [3] = molecular target: T2, FpvB R648C; experiment: Whole-cell fluorescence quenching, FpvB R648C in quadruple mutant; assay type: binding
Method: as §3, §4, §5

FpvB R191A R648C = molecular target: T3, FpvB R191A R648C (Pseudomonas aeruginosa, UniProt A0A0H2ZFZ5, R191A/R648C); experiment: Whole-cell fluorescence quenching, FpvB R191A R648C; assay type: binding
T3 sequence (A0A0H2ZFZ5 23-802 R191A/R648C): T1 sequence (A0A0H2ZFZ5 23-802 W347V/R648C)
Method: as §3, §4, §5

FpvA T660C = molecular target: T4, FpvA T660C (Pseudomonas aeruginosa, UniProt P48632, T660C); experiment: Whole-cell fluorescence quenching, FpvA T660C; assay type: binding; conditions: cells expressing FpvA T660C
T4 construct: expressed in transfected cells; host or cells: P. aeruginosa PA14 ΔfpvA ΔfpvB, plasmid pHERD20T-fpvA T660C, arabinose-induced
Text: as §6
Cells were cultured overnight in LB with carbenicillin (200 μg/mL) at 37°C with shaking at 200 rpm. […] Cells were harvested by centrifugation for 5 min and 6,000 × g and resuspended in sterile 1× phosphate-buffered saline (PBS) (pH 7.4); 1× PBS was made from a 10× stock (80 g NaCl, 2 g KCl, 26.8 g Na2 HPO4-7H2O, 2.4 g KH2PO4 in 1 L of deionized H2O) with 10 μM Alexa Fluor 594 C5 maleimide for microscopy or fluorescein-5-maleimide for fluorescence quenching and recovery assays and incubated in the dark at room temperature for 30 min on a shaking incubator at 37°C (200 rpm). […]

[4] = test system: PA14 ΔfpvA ΔfpvB pHERD20T-fpvB; experiment: Checkerboard assay TS and siderophores, FpvB expressed; assay type: cell-based, Pseudomonas aeruginosa; conditions: 10:90 + 2% arabinose
Text: as §1, §2
Checkerboards (8 rows by 8 columns) were conducted as previously described in a 96-well plate (Nunc) ([13], [14]). TS at 75× the final concentration dissolved in DMSO was added in columns from bottom to top in increasing concentrations. […] The next day, the OD600 was determined with a plate reader (Thermo Scientific) and normalized to percent of growth of the vehicle control (DMSO) after subtracting the OD600 from blank media.

FpvB R648C [5] = molecular target: T2, FpvB R648C; experiment: Fluorescence recovery assay (siderophore uptake by FpvB); assay type: cell-based; conditions: siderophore at 1/2 Kd (1/2 Kd2 for ferrioxamine B), recorded for 1 h
Method: Cells were equilibrated for 5 min prior to introduction of the siderophores. Fluorescence was recorded every min for 1 h. Carbonyl cyanide m-chlorophenylhydrazone (CCCP) was used as a control to inhibit fluorescence recovery through dissipation of the proton motive force (PMF) ([2], [3]), which is required for uptake.
as §4, with “Glucose was prepared as a 20% stock (wt/vol) in 1× PBS and filter sterilized.” left out
as §5, with “After 5 min, 2 μL of each serial dilution for ferrioxamine-Fe^3+, ferrichrome-Fe^3+, and pyoverdine-Fe^3+ or DMSO for vehicle controls was added to each well.” left out, “For fluorescence recovery assays, background was subtracted from all fluorescence readings and F/F0 expressed as a percent of control was plotted versus time.” left out

[6] = FpvB R648C in quadruple mutant, two-site model

T4 sequence (P48632 44-815 T660C): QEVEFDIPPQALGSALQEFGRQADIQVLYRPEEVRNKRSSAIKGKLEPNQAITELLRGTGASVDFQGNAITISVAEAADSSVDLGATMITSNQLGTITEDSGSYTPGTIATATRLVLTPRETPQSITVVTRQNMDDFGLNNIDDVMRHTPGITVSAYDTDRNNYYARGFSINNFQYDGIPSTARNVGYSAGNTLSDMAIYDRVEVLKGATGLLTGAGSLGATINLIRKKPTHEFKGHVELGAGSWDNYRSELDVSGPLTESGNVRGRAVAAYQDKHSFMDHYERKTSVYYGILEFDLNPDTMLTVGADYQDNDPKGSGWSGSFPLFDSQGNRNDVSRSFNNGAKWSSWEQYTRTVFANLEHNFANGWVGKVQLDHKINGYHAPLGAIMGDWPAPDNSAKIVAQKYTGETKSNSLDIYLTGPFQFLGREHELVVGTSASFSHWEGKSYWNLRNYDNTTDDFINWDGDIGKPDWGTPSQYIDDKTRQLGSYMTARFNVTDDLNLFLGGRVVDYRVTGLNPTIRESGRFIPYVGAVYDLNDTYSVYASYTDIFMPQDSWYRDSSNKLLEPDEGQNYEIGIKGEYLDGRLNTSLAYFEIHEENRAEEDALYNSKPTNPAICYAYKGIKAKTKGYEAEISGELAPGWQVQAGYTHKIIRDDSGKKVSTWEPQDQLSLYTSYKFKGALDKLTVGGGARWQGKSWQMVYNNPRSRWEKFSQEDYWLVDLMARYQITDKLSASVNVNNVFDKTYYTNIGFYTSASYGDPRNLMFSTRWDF

CC(=O)N(O)CCCCCNC(=O)CC(O)(CC(=O)NCCCCCN(O)C(C)=O)C(=O)O [arthrobactin]
effect of siderophore on TS susceptibility [1]: None of those siderophores reduced TS susceptibility

O=C(N[C@H]1COC(=O)[C@@H](NC(=O)c2cccc(O)c2O)COC(=O)[C@@H](NC(=O)c2cccc(O)c2O)COC1=O)c1cccc(O)c1O [enterobactin]
effect of siderophore on TS susceptibility [1]: None of those siderophores reduced TS susceptibility

CC(=O)N([O-])CCCCCNC(=O)CCC(=O)N([O-])CCCCCNC(=O)CCC(=O)N([O-])CCCCCN.[Fe+3] [ferrioxamine B-Fe^3+]
Kd (FpvB W347V R648C; FpvB W347V R648C, one-site model): 490 ± 68 µg/mL | Kd1 (FpvB R648C [2]; FpvB R648C in ΔfpvA ΔfpvB, two-site model, higher-affinity site): 1.0 × 10^2 ± 50 ng/mL | Kd2 (FpvB R648C [2]; FpvB R648C in ΔfpvA ΔfpvB, two-site model, lower-affinity site): 270000 ± 47000 ng/mL | Kd1 (FpvB R648C [3]; [6]): 1.0x10^2 ± 59 ng/mL | Kd2 (FpvB R648C [3]; [6]): 370000 ± 95000 ng/mL | Kd (FpvB R191A R648C; FpvB R191A R648C, one-site model): 300 ± 43 µg/mL | fluorescence quenching (FpvA T660C): No quenching

NCCCCC(NC(=O)C(CO)NC(=O)[C@@H]1CCN=C2C(NC(=O)CCC(=O)O)=Cc3cc(O)c(O)cc3N21)C(=O)NCC(=O)NC(CCCN(O)C=O)C(=O)NC1CCCCNC(=O)C(CO)NC(=O)C(CCCN(O)C=O)NC1=O.[Fe+3] (stereo partly shown) [pyoverdine-Fe^3+] (Suc-[X1][ξS][ξK]G[ξOrn(N(OH)CHO)][ξK][ξOrn(N(OH)CHO)][ξS]; lactam 6-C)
Kd for FpvB relative to FpvA (FpvB R648C [2]; higher for FpvB): 200 fold | effect of siderophore on TS susceptibility [4]: did not impact TS susceptibility | fluorescence recovery (FpvB R648C [5]): No recovery

ferrichrome-Fe^3+
increase of Kd by the mutation (FpvB W347V R648C; W347V versus FpvB R648C): > 76 fold | Kd (FpvB R648C [3]; FpvB R648C in ΔfpvA ΔfpvB ΔfiuA ΔfoxA): 0.0085 ± 0.0008 µg/mL | increase of Kd by the mutation (FpvB R191A R648C; R191A versus FpvB R648C): 76 fold | fluorescence quenching (FpvA T660C): ~ 20%
